Test results: US11904037B2, “Enzymatic molecule mimicking anti-oxidant activity” (BIONUCLEI, priority 2018, dated 2024)

Test: ABTS degradation, comparison with tocopherol after dark or UV exposure
Details: colloids 0.5 g/L, tocopherol 1.5 g/L
Description: The protocol for preparing the solutions as in point 4.1/ was repeated with a concentration of ZnO/3-hydroxybenzaldehyde colloids of 0.5 g/L and a concentration of tocopherol of 1.5 g/L.
The solutions obtained were separated: a fraction of the solution being placed in the dark, and the remaining fraction being placed under UV irradiation. After 30 minutes of exposure (to the dark or to UV), 30 μL of a concentrated solution of ABTS (7 mM) was added, and the absorption was then measured.

## tocopherol
After 30 minutes of exposure to UV
  ABTS degradation capacity: 22%
After 30 minutes of exposure to the dark
  ABTS degradation capacity: 22%
